Data published in the NIST ThermoML archive (doi:10.1021/acs.jced.8b00662).

Legend:
[1] = 100 kPa, Liquid; for viscosity: Falling or rolling sphere viscometry; for mass density: Vibrating tube method
[2] = xn = mol fraction of the nth substance listed; settings: 100 kPa, Liquid; for viscosity: Falling or rolling sphere viscometry; for mass density: Vibrating tube method

c1ccc2c(c1)CCCC2 [1,2,3,4-tetrahydronaphthalene]
[1]
Settings | mass density [kg/m3] | viscosity [mPa·s]
293.15 K | 968.89 | 2.233
298.15 K | 964.92 | 2.019
303.15 K | 960.96 | 1.838
308.15 K | 956.99 | 1.681
313.15 K | 953.03 | 1.546
318.15 K | 949.05 | 1.428
323.15 K | 945.1 | 1.324
328.15 K | 941.13 | 1.233
333.15 K | 937.17 | 1.151
338.15 K | 933.19 | 1.079
343.15 K | 929.2 | 1.013

c1ccc2c(c1)CCCC2 [1,2,3,4-tetrahydronaphthalene] + CC(C)C1CCCCC1
[2], x1 = 1
Settings | mass density [kg/m3] | viscosity [mPa·s]
293.15 K | 968.89 | 2.233
298.15 K | 964.92 | 2.019
303.15 K | 960.96 | 1.838
308.15 K | 956.99 | 1.681
313.15 K | 953.03 | 1.546
318.15 K | 949.05 | 1.428
323.15 K | 945.1 | 1.324
328.15 K | 941.13 | 1.233
333.15 K | 937.17 | 1.151
338.15 K | 933.19 | 1.079
343.15 K | 929.2 | 1.013

c1ccc2c(c1)CCCC2 [1,2,3,4-tetrahydronaphthalene] + OCC1CC1
[2], x1 = 1
Settings | mass density [kg/m3] | viscosity [mPa·s]
293.15 K | 968.89 | 2.233
298.15 K | 964.92 | 2.019
303.15 K | 960.96 | 1.838
308.15 K | 956.99 | 1.681
313.15 K | 953.03 | 1.546
318.15 K | 949.05 | 1.428
323.15 K | 945.1 | 1.324
328.15 K | 941.13 | 1.233
333.15 K | 937.17 | 1.151
338.15 K | 933.19 | 1.079
343.15 K | 929.2 | 1.013

CC(C)C1CCCCC1 [(1-methylethyl)cyclohexane]
[1]
Settings | mass density [kg/m3] | viscosity [mPa·s]
293.15 K | 802.14 | 1.093
298.15 K | 798.24 | 1.016
303.15 K | 794.34 | 0.947
308.15 K | 790.43 | 0.886
313.15 K | 786.51 | 0.831
318.15 K | 782.59 | 0.782
323.15 K | 778.66 | 0.738
328.15 K | 774.72 | 0.698
333.15 K | 770.77 | 0.661
338.15 K | 766.81 | 0.628
343.15 K | 762.84 | 0.598

OCC1CC1 [cyclopropylmethanol]
[1]
Settings | mass density [kg/m3] | viscosity [mPa·s]
293.15 K | 913.02 | 3.988
298.15 K | 908.96 | 3.455
303.15 K | 904.87 | 3.009
308.15 K | 900.74 | 2.635
313.15 K | 896.59 | 2.321
318.15 K | 892.38 | 2.054
323.15 K | 888.17 | 1.825
328.15 K | 883.86 | 1.629
333.15 K | 879.52 | 1.46
338.15 K | 875.1 | 1.316
343.15 K | 870.62 | 1.19

OCC1CC1 [cyclopropylmethanol] + CC(C)C1CCCCC1
[2], x2 = 0
Settings | mass density [kg/m3] | viscosity [mPa·s]
293.15 K | 913.02 | 3.988
298.15 K | 908.96 | 3.455
303.15 K | 904.87 | 3.008
308.15 K | 900.74 | 2.635
313.15 K | 896.59 | 2.321
318.15 K | 892.38 | 2.054
323.15 K | 888.17 | 1.825
328.15 K | 883.86 | 1.629
333.15 K | 879.52 | 1.46
338.15 K | 875.1 | 1.317
343.15 K | 870.62 | 1.19
